Source: patent US20040034225A1, “Aryl-substituted n, n-heterocyclic compounds, method for their preparationand their use in therapeutics and diagnostics” (priority 2000, published 2004)
Structures can show the parent of a compound that is named as a salt.

Tests used:
[1] = system: AAPH-induced oxidation of linoleate; experiment: AAPH-induced peroxidation of linoleate (conjugated dienes at 234 nm); type: biochemical; conditions: for A234 (amount of conjugated dienes formed by the peroxidative process): absorption at 234 nm after 150 min at 37° C., aminopyrazines at 10 μM, AAPH alone 0.37; for antioxidative activity (inhibition of lipid peroxidation), in words: comment on Table 2, 10 μM; for antioxidative activity (inhibition of AAPH-induced peroxidation of linoleic acid), in words: FIG. 3
Method: In a preferred embodiment the synthetic derivatives of 2-amino-1,4-pyrazine of family I, characterized by two aryl substituents in positions C-3 and C-5, were endowed with unexpectedly high antioxidative properties (FIG. 1). […] AAPH 4 mM was added to a micellar solution of linoleate (0.16 mM). The rate of conjugated dienes formation was measured at 234 nm at 37° C. All aminopyrazines were tested at 5 μM.
The ability of the synthesized compounds to inhibit lipid peroxidation has been tested on AAPH-induced oxidation of linoleate. Briefly, a micellar solution of linoleate (0.16 mM) is incubated at 37° C. with 4 mM free radical generator AAPH (2,2′-azobis-2-methyl-propionamidine hydrochloride) in a microplate-based spectrophotometer. The production of conjugated dienes by the peroxidation of linoleate is monitored continuously at 234 nm. Antioxidants can both delay the onset of the oxidation process and reduce the rate of the oxidation.
The amount of conjugated dienes formed by the peroxidative process evaluated by the absorption at 234 nm after 150 min at 37° C. All aminopyrazines were tested at 10 μM.

[2] = system: Human keratinocytes cells (HaCaT); experiment: Protective effect against UVB in HaCaT cells (LDH release); type: cell-based; conditions: for Percentage Mortality (LDH assay), Unirradiated cells: 24 hours, no UVB; for mortality at 50 µM: Homo sapiens, light or radiation study, 30 min pre-incubation, UVB 200 mJ/cm^2, 24 hours, control 14.1, read-out: Percentage Mortality (LDH assay), UVB-irradiated cells
Method: Human keratinocytes cells (HaCaT) were cultured in 96-well microplates. Tested compounds were solubilized in phosphate buffered saline (PBS) and applied to cells 30 minutes prior to the irradiation with UVB in a BIOSUN irradiation system (Vilbert-Lourmat). PBS was then replaced by the culture medium containing the tested compounds, and incubated for a further 24 hours before measuring the percentage of lactate dehydrogenase (LDH) released into the cell culture supernatant.
Keratinocytes were pre-incubated with aminopyrazines (50 μM) for 30 min and then irradiated with UVB at 200 mJ/cm^2 in the absence of the antioxidant. The cells were then incubated for a further 24 hours in the culture medium containing the tested compounds before measuring the percentage of lactate dehydrogenase (LDH) released into the cell culture supernatant.
Keratinocytes were pre-incubated with increasing concentrations of CD43 for 30 min and then irradiated with UVB at 200 mJ/cm^2. The cells were incubated for a further 24 hours before measuring the percentage of lactate dehydrogenase (LDH) released into the cell culture supernatant.

[3] = FIG. 2, increasing concentrations of CD43

In the case of `Cc1nc2c(-c3ccc(O)cc3)[nH]c(-c3ccccc3)cn-2c1=O` (as salt: hydrochloride) (hydrate or solvate) [CD52, 2-Methyl-6-phenyl-8-(p-hydroxyphenyl)-3,7-dihydroimidazolo[1,2-a]pyrazin-3-one], the melting point is reported as 99.5 °C (dec.).

For `CCOC(=O)C(C)Nc1nc(NC(C)C(=O)OCC)c(-c2ccc(O)cc2)nc1-c1ccc(O)cc1` (centres unmarked) (as salt: hydrochloride) [JFC38, 2,6-Bis(1′-ethoxycarbonyl-ethylamino)-3,5-bis(p-hydroxyphenyl)-1,4-pyrazine], the melting point was 175 °C (dec.).

In the case of `COc1ccc(-c2cnc(N)c(-c3ccc(OC)cc3)n2)cc1` [CD29, 2-Amino-3,5-bis(p-methoxyphenyl)-1,4-pyrazine, reference compound], the “A234 (amount of conjugated dienes formed by the peroxidative process)” value [1] is reported as 0.37 and the “antioxidative activity (inhibition of lipid peroxidation), in words” value [1] is reported as “reduced activities”.

With `Nc1ncc(-c2ccc(O)cc2)nc1-c1ccc(O)cc1` [CD31, 2-amino-3,5-bis(p-hydroxyphenyl)-1,4-pyrazine] the “A234 (amount of conjugated dienes formed by the peroxidative process)” value [1] was 0.08, the “antioxidative activity (inhibition of lipid peroxidation), in words” value [1] was “very active” and the “Percentage Mortality (LDH assay), Unirradiated cells” value (“Percentage Mortality (LDH assay)” below) ([2]; 50 μM) was 0%. The mortality at 50 µM ([2]; 50 μM) was 0%.

For `Cc1nc2c(-c3ccc(O)cc3)[nH]c(-c3ccc(O)cc3)cn-2c1=O` [CD43, 2-Methyl-6,8-bis(p-hydroxyphenyl)-3,7-dihydroimidazolo[1,2-a]pyrazin-3-one], the “onset of peroxidation, in words” value [1, 3] was “delay of the onset of peroxidation”, the “rate of oxidation after onset, in words” value [1, 3] was “lower rate of oxidation after onset” and the “protection against UVB-induced mortality, in words” value ([2]; FIG. 4, increasing concentrations of CD43, UVB 200 mJ/cm^2) was “very efficiently protect cells against UVB-induced mortality”. The “toxicity for cells, in words” value ([2]; controls) was “no toxicity for cells”.

In the case of `Nc1ncc(-c2ccccc2)nc1-c1ccc(O)cc1` [CD46, 2-amino-3-(p-hydroxyphenyl)-5-phenyl-1,4-pyrazine], the “A234 (amount of conjugated dienes formed by the peroxidative process)” value [1] is reported as 0.19, the “Percentage Mortality (LDH assay)” value ([2]; 50 μM) is reported as 0% and the “protection against UVB-induced cytotoxicity, in words” value ([2]; 50 μM, UVB 200 mJ/cm^2) is reported as “very efficiently reduced the cytotoxicity of UVB”. It also gave a mortality at 50 µM ([2]; 50 μM) of 0%.

In the case of `Nc1ncc(-c2ccc(O)cc2)nc1-c1ccccc1` [CD51, 2-amino-3-phenyl-5-(p-hydroxyphenyl)-1,4-pyrazine], the “rate of the oxidation, in words” value ([1]; FIG. 6, 5 μM) is reported as “only reduces the rate of the oxidation”, the “A234 (amount of conjugated dienes formed by the peroxidative process)” value [1] is reported as 0.12 and the “antioxidative activity (inhibition of lipid peroxidation), in words” value [1] is reported as “more activity”. For the same compound, the “Percentage Mortality (LDH assay)” value ([2]; 50 μM) was 0% and the mortality at 50 µM ([2]; 50 μM) was 7.3%.

In the case of `Cc1nc2c(-c3ccccc3)[nH]c(-c3ccc(O)cc3)cn-2c1=O` [CD53, 2-Methyl-6-(p-hydroxyphenyl)-8-phenyl-3,7-dihydroimidazolo[1,2-a]pyrazin-3-one], the “onset of the oxidation process, in words” value ([1]; FIG. 6, 5 μM) is reported as “firstly delays the onset of the oxidation process”.

With `Nc1nc(N)c(-c2ccc(O)cc2)nc1-c1ccc(O)cc1` [JFC28, 2,6-diamino-3,5-bis(p-hydroxyphenyl)-1,4-pyrazine] the “antioxidative activity (inhibition of AAPH-induced peroxidation of linoleic acid), in words” value ([1]; 5 μM) was “does not improve the activity”.

With `CCOC(=O)C(C)Nc1nc(NC(C)C(=O)OCC)c(-c2ccc(O)cc2)nc1-c1ccc(O)cc1` (centres unmarked) [JFC38, 2,6-Bis(1′-ethoxycarbonyl-ethylamino)-3,5-bis(p-hydroxyphenyl)-1,4-pyrazine] the “antioxidative activity (inhibition of AAPH-induced peroxidation of linoleic acid), in words” value ([1]; 5 μM) was “very active”.

In the case of `Nc1nc(N)c(-c2ccccc2)nc1-c1ccccc1` [JFC 33], the “antioxidative activity (inhibition of AAPH-induced peroxidation of linoleic acid), in words” value ([1]; 5 μM) is reported as “active”.

For `CCOC(=O)C(C)Nc1nc(NC(C)C(=O)OCC)c(-c2ccccc2)nc1-c1ccccc1` (centres unmarked) [JFC 39], the “antioxidative activity (inhibition of AAPH-induced peroxidation of linoleic acid), in words” value ([1]; 5 μM) was “active”.
